Legend:
[1] = system: legumain and cathepsin B in RAW cell extracts; assay: Direct labeling of RAW cell extracts with Cy5 probes; type: binding; conditions: varying concentrations
Text: Cy5 fluorescently labeled versions of the three best caspase probes were compared in direct labeling experiments using recombinant caspase-3 (FIG. 13, bottom panels) and RAW cell extracts (FIG. 13, top panels). […] All probes have similar reactivity towards recombinant caspase-3.

[2] = target: T1, FL-C7 (full-length caspase-7) (Homo sapiens, UniProt P55210); assay: Inhibitor specificity in hypotonic 293 extracts, full-length caspase-7; type: biochemical; conditions: inhibitor 20 μM for 5 min, then KMB01 30 min
T1 construct: the p37 band as the full-length caspase-7 with intact N-terminus (FL-C7); endogenous in cells
T1 sequence (P55210 1-303): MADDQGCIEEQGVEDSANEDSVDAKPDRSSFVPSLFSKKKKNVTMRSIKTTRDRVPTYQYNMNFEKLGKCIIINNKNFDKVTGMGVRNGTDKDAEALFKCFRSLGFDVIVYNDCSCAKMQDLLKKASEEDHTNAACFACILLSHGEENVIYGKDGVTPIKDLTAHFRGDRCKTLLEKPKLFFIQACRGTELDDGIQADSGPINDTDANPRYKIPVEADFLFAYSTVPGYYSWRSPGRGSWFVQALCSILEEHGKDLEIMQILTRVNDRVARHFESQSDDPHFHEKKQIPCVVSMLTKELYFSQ
Text: (§1) FIGS. 6 A-E illustrate that full-length active caspase-7 has unique inhibitor specificity and is processed to mature forms by downstream executioner caspases. (A) The caspase-3 specific inhibitor causes accumulation of a catalytically active full-length form of caspase-7. Cytosolic extracts from 293 cells were activated with cytochrome c/dATP for the indicated times followed by labeling with KMB01 (left panel) and western blotting with a caspase-7 specific antibody (right panel) as in FIG. 5A. […] (B) The exact same experiment as (A) except extracts from MCF-7 cells were used in place of 293 extracts. (**) indicates forms of caspase-7 that are likely a result of the alternative transcription start site at methionine-45 (C) Quantification of the relative activity of FL-C7 in uninhibited 293 extracts (from FIG. 5A), AB06 treated 293 extracts (from (A)) and uninhibited MCF-7 extracts (from (B)) (D) Inhibitor specificity of full-length and processed forms of caspase-7. Extracts (293) were activated for 5 min with cytochrome c/dATP and then incubated with NP-capped AOMK inhibitors containing the indicated primary amino acid sequences for 5 minutes before KMB01 was added and allowed to label residual caspase active sites for 30 minutes. Samples were analyzed by SDS-PAGE followed by biotin blotting using strepavidin-HRP (left panel) or western blotting for caspase-7 (right panel). Identities of labeled caspases are indicated. (E) Specificity of AB06 after prolonged incubation times. Extracts were treated with AB06 at the indicated concentrations simultaneously with cytochrome c/dATP. At the indicated times after activation, samples were labeled with KMB01 (10 μM) for 30 minutes. Labeled caspases were resolved by SDS-PAGE analysis followed by biotin blotting using strepavidin-HRP.
To further confirm our assignment of the labeled species we treated samples at various activation times with purified recombinant Bir3 domain of XIAP. […]
(§2) An additional surprising finding from the inhibitor studies was the overall lack of inhibition of the FL-C7 species by AB06 relative to mature p20 forms of caspase-7. […] Samples were analyzed for active site labeling and protein levels of both full-length and p20 forms of caspase-7 were monitored by western blot (FIG. 6D).
Hypotonic 293 extracts (73 μg of total protein) were activated as described above and allowed to incubate for the indicated times. […] Labeling was carried out for an additional 30 minutes and samples (13.5 μg total protein) were analyzed by SDS-PAGE and biotin blotting as described above.
(§3) Hypotonic 293 extracts (73 μg of total protein) were activated at 37° C. for 5 minutes as described above. […] Samples (13.5 μg total protein) were analyzed by SDS-PAGE and biotin blotting as described above

[3] = target: T2, mature p20 forms of caspase-7 (Homo sapiens, UniProt P55210); assay: Inhibitor specificity in hypotonic 293 extracts, mature p20 caspase-7; type: biochemical; conditions: inhibitor 20 μM for 5 min, then KMB01 30 min
T2 construct: p20 is mature large subunit of caspase-7 with N-terminal peptide removed; processing of the zymogen to the large and small subunits by activity of the initiator caspases; endogenous in cells
T2 sequence (P55210 24-198 limits assumed): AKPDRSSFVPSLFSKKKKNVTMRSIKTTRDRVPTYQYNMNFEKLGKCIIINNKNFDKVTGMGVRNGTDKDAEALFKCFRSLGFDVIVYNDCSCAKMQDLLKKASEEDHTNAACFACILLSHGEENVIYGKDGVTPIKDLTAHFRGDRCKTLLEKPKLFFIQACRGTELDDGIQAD
T2 sequence (P55210 207-303 limits assumed): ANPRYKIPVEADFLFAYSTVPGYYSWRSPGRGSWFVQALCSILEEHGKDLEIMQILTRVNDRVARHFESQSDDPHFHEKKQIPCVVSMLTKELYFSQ
Text: as §1
as §2, with “mature p20 forms of caspase-7. This was surprising since the sequence of AB06 (NP-D3VD-AOMK) differs from the KMB01 probe sequence (Bio-EVD-AOMK) only at the P3 residue. […] We therefore wanted to use inhibitors to compare the ability of different P3 elements to bind to full-length and p20 mature forms of” for “mature p20 forms of”
as §3

cathepsin B and legumain = assay: In vivo labeling of cathepsin B and legumain in kidney and spleen of normal mice; conditions: intravenous, tissues collected 2 hrs after injection
Protocol: The present selective caspase inhibitors may be used for in vivo imaging. Cy5-fluorescent labeled versions of AB46 and AB50 were injected into normal mice and labeling of cathepsins and legumain in kidney and spleen was monitored (FIG. 14).
Normal mice were intravenously injected with the probes and tissues were collected 2 hrs after injection. Tissues were homogenized and total protein samples were analyzed by SDS-PAGE followed by scanning of the gel using a fluorescent scanner.

Row | Compound | direct labeling of off targets in RAW cell extracts [1] | inhibition of FL-C7 labeling [2] | block of KMB01 labeling of mature p20 caspase-7 [3] | in vivo labeling in kidney and spleen (cathepsin B and legumain)
1 | Cy5-hex-EPD-AOMK [AB50-Cy5] | only labels legumain | – | – | –
2 | Cc1cccc(C)c1C(=O)OCC(=O)[C@H](CC(=O)O)NC(=O)[C@@H](NC(=O)[C@H](Cc1ccncc1)NC(=O)Cc1ccccc1)C(C)C [AB37, Cbz-3-V-D-AOMK] | – | relatively insensitive to inhibition | incomplete inhibition | –
3 | Cc1cccc(C)c1C(=O)OCC(=O)[C@H](CC(=O)O)NC(=O)[C@@H](NC(=O)[C@H](CCC(=O)O)NC(=O)Cc1ccc(O)c([N+](=O)[O-])c1)C(C)C [AB45, Np-E-V- D-AOMK] | – | almost totally inhibited | efficiently blocked labeling | –
4 | CC[C@H](NC(=O)[C@@H](CCC(=O)O)NC(=O)Cc1ccc(O)c([N+](=O)[O-])c1)C(=O)N[C@@H](CC(=O)O)C(=O)COC(=O)c1c(C)cccc1C [AB46, Np-E-8-D-AOMK] | – | – | – | significant labeling of both legumain and cathepsin B

Source: patent US20100068150A1, “Selective Caspase Inhibitors” (The Board of Trustees of the Leland Stanford Junior …, priority 2006, published 2010)
